Test results published in patent US8519149B2, “Tricyclic compounds as mPGES-1 inhibitors” (Glenmark Pharmaceuticals S.A., priority 2010, dated 2013).

Biological target: T1, Recombinant human mPGES-1 (Homo sapiens, UniProt O14684)
T1 sequence (O14684 1-152): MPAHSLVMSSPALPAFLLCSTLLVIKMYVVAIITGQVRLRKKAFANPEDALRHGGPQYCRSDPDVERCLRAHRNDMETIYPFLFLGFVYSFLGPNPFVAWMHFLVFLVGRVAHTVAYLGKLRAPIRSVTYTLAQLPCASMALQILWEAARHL
Assay: In-vitro mPGES-1 enzyme inhibition assay (PGE2 formation from PGH2, HTRF detection)
Type: biochemical
Settings: for inhibition at 1 µM: 1 μM test compound, read-out: Percentage inhibition at 1 μM; for inhibition at 1 µM / inhibition at 10 µM: recombinant human mPGES-1 microsomal fraction; for inhibition at 10 µM: 10 μM test compound, read-out: Percentage inhibition at 10 μM; for IC50: class symbols, selected examples
Outline: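 IC50 values were derived by nonlinear regression of percent inhibition relative to enzyme reactions run without inhibitor. PGE2 formed from PGH2 with GSH was quantified by antibody-based HTRF after stannous chloride quench. Enzyme source was human mPGES-1 microsomes at 40-60 μg/mL protein; DMSO 0.5% (v/v).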

inhibition at 1 µM [%] | inhibition at 10 µM [%] | IC50 [nM] | Compound
79.2 | 88 | > 100 | CC1(C)Cc2c(c(-c3nc(-c4ccc(F)c(Cl)c4)no3)cc3nc(Nc4c(Cl)cccc4Cl)[nH]c23)O1 [Example-161, 5-(3-(3-Chloro-4-fluorophenyl)-1,2,4-oxadiazol-5-yl)-N-(2,6-dichlorophenyl)-7,7-dimethyl-7,8-dihydro-1H-benzofuro[4,5-d]imidazol-2-amine]
99.9 | 100 | < 50 | CC1(C)Cc2c(c(C(=O)Nc3ncc(Cl)cc3F)cc3nc(Nc4c(Cl)cccc4Cl)[nH]c23)O1 [Example-205, N-(5-Chloro-3-fluoropyridin-2-yl)-2-((2,6-dichlorophenyl)amino)-7,7-dimethyl-7,8-dihydro-1H-benzofuro[4,5-d]imidazole-5-carboxamide]
96.5 | 96.4 |  | Cn1c(Nc2c(Cl)cncc2Cl)nc2cc(C(=O)Nc3ccc(C4CC4)cc3)c3c(c21)CC(C)(C)O3 [Example-216, N-(4-Cyclopropylphenyl)-2-((3,5-dichloropyridin-4-yl)amino)-1,7,7-trimethyl-7,8-dihydro-1H-benzofuro[4,5-d]imidazole-5-carboxamide]
96.1 | 96.3 | < 50 | CC1(C)Cc2c(c(C(=O)Nc3ccc(C(F)(F)F)nc3)cc3nc(Nc4c(F)cccc4Cl)[nH]c23)O1 [Example-191, 2-((2-Chloro-6-fluorophenyl)amino)-7,7-dimethyl-N-(6-(trifluoromethyl)pyridin-3-yl)-7,8-dihydro-1H-benzofuro[4,5-d]imidazole-5-carboxamide]
89.4 | 96.9 | < 50 | Cc1cccc(Cl)c1Nc1nc2cc(C(=O)Nc3cc(C4CC4)ccc3F)c3c(c2[nH]1)CC(C)(C)O3 [Example-136, 2-((2-Chloro-6-methylphenyl)amino)-N-(5-cyclopropyl-2-fluorophenyl)-7,7-dimethyl-7,8-dihydro-1H-benzofuro[4,5-d]imidazole-5-carboxamide]
100 | 100 |  | CC1(C)Cc2c(c(C(=O)Nc3ccc(Cl)cn3)cc3nc(Nc4c(F)cccc4Cl)[nH]c23)O1 [Example-121, 2-[(2-Chloro-6-fluorophenyl)amino]-N-(5-chloropyridin-2-yl)-7,7-dimethyl-7,8-dihydro-1H-furo[3,2-e]benzimidazole-5-carboxamide]
98 | 100 | < 50 | Cc1cccc(Cl)c1Nc1nc2cc(C(=O)Nc3ncc(Cl)cc3F)c3c(c2[nH]1)CC(C)(C)O3 [Example-204, N-(5-Chloro-3-fluoropyridin-2-yl)-2-((2-chloro-6-methylphenyl)amino)-7,7-dimethyl-7,8-dihydro-1H-benzofuro[4,5-d]imidazole-5-carboxamide]
98.9 | 100 | < 50 | CC1(C)Cc2c(c(C(=O)Nc3cc(C4CC4)ccc3F)cc3nc(Nc4c(Cl)cccc4Cl)[nH]c23)O1 [Example-159, N-(5-Cyclopropyl-2-fluorophenyl)-2-((2,6-dichlorophenyl)amino)-7,7-dimethyl-7,8-dihydro-1H-benzofuro[4,5-d]imidazole-5-carboxamide]
98.1 | 100 | < 50 | CC1(C)Cc2c(c(C(=O)Nc3cccc(C(C)(F)F)c3)cc3nc(Nc4c(F)cccc4Cl)[nH]c23)O1 [Example-119, 2-[(2-Chloro-6-fluorophenyl)amino]-N-[3-(1,1-difluoroethyl)phenyl]-7,7-dimethyl-7,8-dihydro-1H-furo[3,2-e]benzimidazole-5-carboxamide]
99.6 | 99.5 | < 50 | CC1(C)Cc2c(c(C(=O)Nc3ccc(F)cc3F)cc3nc(Nc4c(Cl)cncc4Cl)[nH]c23)O1 [Example-197, 2-((3,5-Dichloropyridin-4-yl)amino)-N-(2,4-difluorophenyl)-7,7-dimethyl-7,8-dihydro-1H-benzofuro[4,5-d]imidazole-5-carboxamide]
98.6 | 98.5 | < 50 | Cc1nc2c(o1)c(C(=O)Nc1cc(C(F)(F)F)ccc1F)cc1nc(Nc3c(F)cccc3Cl)[nH]c12 [Example-186, 7-((2-Chloro-6-fluorophenyl)amino)-N-(2-fluoro-5-(trifluoromethyl)phenyl)-2-methyl-8H-imidazol[4′,5′:5,6]-benzo[1,2-d]oxazole-4-carboxamide]
99.4 | 100 |  | Cn1c(Nc2c(Cl)cncc2Cl)nc2cc(C(=O)Nc3cc(C(F)(F)F)ccc3F)c3c(c21)CC(C)(C)O3 [Example-218, 2-((3,5-Dichloropyridin-4-yl)amino)-N-(2-fluoro-5-(trifluoromethyl)phenyl)-1,7,7-trimethyl-7,8-dihydro-1H-benzofuro[4,5-d]imidazole-5-carboxamide]
91.4 | 96.5 | < 50 | Cc1cccc(Cl)c1Nc1nc2cc(C(=O)Nc3ccc(F)c(C(F)(F)F)c3)c3c(c2[nH]1)CC(C)(C)O3 [Example-133, 2-((2-Chloro-6-methylphenyl)amino)-N-(4-fluoro-3-(trifluoromethyl)phenyl)-7,7-dimethyl-7,8-dihydro-1H-benzofuro[4,5-d]imidazole-5-carboxamide]

Second part, the compound before the results:

Compound | inhibition at 1 µM [%] | inhibition at 10 µM [%] | IC50 [nM]
CC1(C)Cc2c(c(C(=O)NCc3ccc(F)cc3)cc3nc(Nc4c(Cl)cncc4Cl)[nH]c23)O1 [Example-26, 2-[(3,5-Dichloropyridin-4-yl)amino]-N-(4-fluorobenzyl)-7,7-dimethyl-7,8-dihydro-1H-furo[3,2-e]benzimidazole-5-carboxamide] | 90.2 | 97.8 | < 50
CC1(C)Cc2c(c(C(=O)Nc3ccc(C(F)(F)F)cc3)cc3nc(Nc4ccc(F)cc4Cl)[nH]c23)O1 [Example-86, 2-[(2-Chloro-4-fluorophenyl)amino]-7,7-dimethyl-N-[4-(trifluoromethyl)phenyl]-7,8-dihydro-1H-furo[3,2-e]benzimidazole-5-carboxamide] | 95 | 98.7 | < 50
Cc1cc2c(o1)c(C(=O)Nc1cccc(C(F)(F)F)c1)cc1nc(Nc3c(Cl)cccc3Cl)[nH]c12 [Example-68, 2-[(2,6-Dichlorophenyl)amino]-7-methyl-N-[3-(trifluoromethyl)phenyl]-1H-furo[3,2-e]benzimidazole-5-carboxamide] | 97.6 | 98.5 | 
Cc1cc2c(o1)c(C(=O)NC(C)C(C)(C)C)cc1nc(Nc3c(Cl)cncc3Cl)[nH]c12 (stereo not drawn) [Example-23, 2-[(3,5-Dichloropyridin-4-yl)amino]-N-(3,3-dimethylbutan-2-yl)-7-methyl-1H-furo[3,2-e]benzimidazole-5-carboxamide] | 94 | 97.1 | < 50
CC(NC(=O)c1cc2nc(Nc3c(Cl)cncc3Cl)[nH]c2c2c1OC(C)(C)C2)C1CCCCC1 (stereo not drawn) [Example-5, N-(1-Cyclohexylethyl)-2-[(3,5-dichloropyridin-4-yl)amino]-7,7-dimethyl-7,8-dihydro-1H-furo[3,2-e]benzimidazole-5-carboxamide] | 97.7 | 97.8 | < 50
CC1(C)Cc2c(c(C(=O)NCc3ccc(F)cc3)cc3nc(Nc4c(F)cccc4Cl)[nH]c23)O1 [Example-39, 2-[(2-Chloro-6-fluorophenyl)amino]-N-(4-fluorobenzyl)-7,7-dimethyl-7,8-dihydro-1H-furo[3,2-e]benzimidazole-5-carboxamide] | 92.5 | 70.7 | < 50
CC1(C)Cc2c(c(C(=O)Nc3ccc(C(F)(F)F)cc3)cc3nc(Nc4c(Cl)cncc4Cl)[nH]c23)O1 [Example-10, 2-[(3,5-Dichloropyridin-4-yl)amino]-7,7-dimethyl-N-[4-(trifluoromethyl)phenyl]-7,8-dihydro-1H-furo[3,2-e]benzimidazole-5-carboxamide] | 83.4 | 91.8 | 
Cc1csc(NC(=O)c2cc3nc(Nc4c(F)cccc4Cl)[nH]c3c3c2OC(C)(C)C3)n1 [Example-54, 2-[(2-Chloro-6-fluorophenyl)amino]-7,7-dimethyl-N-(4-methyl-1,3-thiazol-2-yl)-7,8-dihydro-1H-furo[3,2-e]benzimidazole-5-carboxamide] | 79.2 | 92.8 | 
CC1(C)Cc2c(c(C(=O)NCCc3ccc(Cl)cc3)cc3nc(Nc4c(Cl)cccc4Cl)[nH]c23)O1 [Example-83, N-[2-(4-Chlorophenyl)ethyl]-2-[(2,6-dichlorophenyl)amino]-7,7-dimethyl-7,8-dihydro-1H-furo[3,2-e]benzimidazole-5-carboxamide] | 87.7 | 89.3 | < 50
CC1CC2CC(C1NC(=O)c1cc3nc(Nc4c(Cl)cncc4Cl)[nH]c3c3c1OC(C)(C)C3)C2(C)C (stereo not drawn) [Example-17, 2-[(3,5-Dichloropyridin-4-yl)amino]-7,7-dimethyl-N-(3,6,6-trimethylbicyclo[3.1.1]hept-2-yl)-7,8-dihydro-1H-furo[3,2-e]benzimidazole-5-carboxamide] | 98 | 96.1 | < 50
CC1(C)Cc2c(c(C(=O)NCc3ccccc3C(F)(F)F)cc3nc(Nc4c(Cl)cccc4Cl)[nH]c23)O1 [Example-82, 2-[(2,6-Dichlorophenyl)amino]-7,7-dimethyl-N-[2-(trifluoromethyl)benzyl]-7,8-dihydro-1H-furo[3,2-e]benzimidazole-5-carboxamide] | 94.1 | 97.6 | < 50
